According to patent US20250222145A1, “TRACER COMPOSITION FOR RADIOACTIVE PET DIAGNOSIS, INTERMEDIATE THEREOF, AND PRODUCTION METHOD THEREOF” (OSAKA UNIVERSITY, priority 2021, published 2025):

Columns and labels:
[1] = radiochemical purity over time after production; assay type: physicochemical; details: after 5 hours of production, FIG. 1
Description: A result of measuring radiochemical purity of the obtained compound 3 is illustrated in FIG. 1.

[2] = changes over time in accumulation in the kidney (SUV, PET); assay type: in vivo, mouse; details: FIG. 3, SUV based on the radiation dose of blood
Experimental: (§1) ^18F-FAMT-OMe synthesized in the Example 1 was administered to a model mouse of brain tumor (C6 glioma), and accumulation properties thereof were observed Specifically, a solution containing about 10 MBq of ^18F-FAMT-OMe was intravenously injected into the mouse, and PET images were acquired at regular intervals.
In addition, FIG. 3 (left drawing) illustrates a result of measuring changes over time in the accumulation of the ^18F-FAMT-OMe in the kidney on the basis of a standardized uptake value (SUV) value based on the radiation dose of blood. As a comparative example, a result of a case using the ^18F-FAMT is illustrated in FIG. 3 (right drawing). In addition, FIG. 4 is a graph comparing the maximum value of SUV (SUVmax) with the existing tracer compounds ^18F-FBPA and ^18F-FAMT.

brain tumor (C6 glioma) [3] = experiment: distribution (% ID/g) in the mouse body; assay type: in vivo; details: FIG. 5; except kidney and pancreas
Description: Further, FIG. 5 is a graph representing a distribution (% ID/g) of the ^18F-FAMT-OMe of the present invention in the mouse body.

brain tumor (C6 glioma) [4] = experiment: PET imaging of tumor accumulation in C6 glioma model mouse; assay type: in vivo
Experimental: as §1

stability of radiochemical purity [1]: purity was maintained even after 5 hours | accumulation in the kidney over time (SUV) [2]: excreted from the kidney over time
Structure (SMILES): COc1ccc(CC(C)(N)C(=O)O)cc1[18F] (stereo not drawn) [Compound 3]
distribution (% ID/g): tumor versus normal organs and blood (brain tumor (C6 glioma) [3]): significantly higher accumulation at a tumor site | accumulation at a tumor site (PET images) (brain tumor (C6 glioma) [4]; about 10 MBq intravenously, model mouse of brain tumor (C6 glioma), FIG. 2): clear and high accumulation at a tumor site | washing out from tumor site (brain tumor (C6 glioma) [4]; in comparison with conventional ^18F-FAMT, FIG. 2): washing out was significantly gentle | accumulation one hour after administration (brain tumor (C6 glioma) [4]; one hour after administration, versus conventional ^18F-FAMT): better than that of the conventional ^18F-FAMT
